Molecular target: T1, sweet taste receptor (Homo sapiens, UniProt Q7RTX0+Q8TE23)
T1 sequence (Q8TE23 20-839): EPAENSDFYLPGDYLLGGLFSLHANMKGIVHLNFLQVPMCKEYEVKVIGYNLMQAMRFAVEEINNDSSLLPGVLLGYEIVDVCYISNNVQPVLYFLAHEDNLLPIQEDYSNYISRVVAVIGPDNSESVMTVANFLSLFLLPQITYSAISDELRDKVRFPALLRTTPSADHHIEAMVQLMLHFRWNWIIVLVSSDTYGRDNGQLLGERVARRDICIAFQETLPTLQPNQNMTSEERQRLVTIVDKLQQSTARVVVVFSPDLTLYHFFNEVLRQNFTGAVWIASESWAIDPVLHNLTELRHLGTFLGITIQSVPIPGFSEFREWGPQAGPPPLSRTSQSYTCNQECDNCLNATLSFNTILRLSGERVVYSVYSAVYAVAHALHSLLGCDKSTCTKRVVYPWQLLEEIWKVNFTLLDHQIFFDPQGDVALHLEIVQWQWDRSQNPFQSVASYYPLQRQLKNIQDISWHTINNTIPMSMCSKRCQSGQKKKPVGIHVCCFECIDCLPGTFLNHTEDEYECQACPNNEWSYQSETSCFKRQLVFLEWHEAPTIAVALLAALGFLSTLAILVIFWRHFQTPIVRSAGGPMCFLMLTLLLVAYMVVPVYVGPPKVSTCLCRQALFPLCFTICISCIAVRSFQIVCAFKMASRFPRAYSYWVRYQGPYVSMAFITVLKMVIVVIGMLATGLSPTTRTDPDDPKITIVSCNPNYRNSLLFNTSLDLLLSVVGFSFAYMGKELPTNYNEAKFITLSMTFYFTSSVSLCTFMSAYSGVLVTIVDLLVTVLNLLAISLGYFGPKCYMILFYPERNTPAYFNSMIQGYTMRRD
T1 sequence (Q7RTX0 21-852): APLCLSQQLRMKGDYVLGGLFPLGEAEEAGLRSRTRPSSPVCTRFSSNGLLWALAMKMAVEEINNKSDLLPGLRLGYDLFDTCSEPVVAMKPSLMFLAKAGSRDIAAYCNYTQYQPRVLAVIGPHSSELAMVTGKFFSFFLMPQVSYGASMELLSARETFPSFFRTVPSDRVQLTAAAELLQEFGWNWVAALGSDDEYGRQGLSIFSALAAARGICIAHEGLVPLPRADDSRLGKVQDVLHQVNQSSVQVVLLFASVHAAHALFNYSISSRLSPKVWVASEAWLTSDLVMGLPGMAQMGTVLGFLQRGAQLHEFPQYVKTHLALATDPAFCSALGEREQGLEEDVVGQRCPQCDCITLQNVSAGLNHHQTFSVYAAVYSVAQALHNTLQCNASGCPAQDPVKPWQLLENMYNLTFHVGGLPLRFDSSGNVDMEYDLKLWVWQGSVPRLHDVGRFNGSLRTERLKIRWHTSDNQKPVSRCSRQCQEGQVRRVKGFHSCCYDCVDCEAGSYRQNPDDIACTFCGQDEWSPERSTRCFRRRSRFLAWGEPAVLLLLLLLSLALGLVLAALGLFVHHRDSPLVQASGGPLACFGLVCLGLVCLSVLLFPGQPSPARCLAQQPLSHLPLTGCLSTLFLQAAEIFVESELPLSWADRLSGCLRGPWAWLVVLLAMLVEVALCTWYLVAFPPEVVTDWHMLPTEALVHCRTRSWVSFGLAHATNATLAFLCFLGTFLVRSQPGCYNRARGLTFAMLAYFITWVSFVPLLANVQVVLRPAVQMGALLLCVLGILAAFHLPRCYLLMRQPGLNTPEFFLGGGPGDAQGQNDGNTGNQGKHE
Test: Synergy effects (sweet taste receptor signal increase) in binary compound mixtures
Format: cell-based
Conditions: calculated as L(X&Y)/(L(X)+L(Y)); for Synergy effect observed in binary compound mixture with Aspartame: partner Aspartame; for Synergy effect observed in binary compound mixture with Reb A: partner Reb A; for Synergy effect observed in binary compound mixture with sucralose: partner sucralose; for Synergy effect observed in binary compound mixture with sucrose: partner sucrose; for Synergy effect observed in binary compound mixture with NHDC: partner NHDC; for Synergy effect observed in binary compound mixture with Thaumatin: partner Thaumatin
Description: The present example describes sweet taste receptor signal increases calculated for the following sweeteners: aspartame, sucrose, sucralose, rebaudioside A, rebaudioside D, thaumatin, NHDC, and S819 are present in various combinations in a binary mixture as shown in Table 1.
Synergy between binary mixtures of the sweeteners was calculated as following: L(X&Y)/(L(X)+L(Y)).

| Compound | Synergy effect observed in binary compound mixture with Aspartame | Synergy effect observed in binary compound mixture with Reb A | Synergy effect observed in binary compound mixture with sucralose | Synergy effect observed in binary compound mixture with sucrose | Synergy effect observed in binary compound mixture with NHDC | Synergy effect observed in binary compound mixture with Thaumatin |
| --- | --- | --- | --- | --- | --- | --- |
| Thaumatin | 0.5 | 0.4 |  |  |  |  |
| C=C1C[C@@]23CC[C@H]4[C@@](C)(CCC[C@@]4(C)C(=O)O[C@@H]4O[C@H](CO)[C@@H](O)[C@H](O)[C@H]4O[C@@H]4O[C@H](CO)[C@@H](O)[C@H](O)[C@H]4O)[C@@H]2CC[C@]1(O[C@@H]1O[C@H](CO)[C@@H](O)[C@H](O[C@@H]2O[C@H](CO)[C@@H](O)[C@H](O)[C@H]2O)[C@H]1O[C@@H]1O[C@H](CO)[C@@H](O)[C@H](O)[C@H]1O)C3 [Reb D, Rebaudioside D] |  |  | 0.3 | 0.25 |  |  |
| C=C1C[C@@]23CC[C@H]4[C@@](C)(CCC[C@@]4(C)C(=O)O[C@@H]4O[C@H](CO)[C@@H](O)[C@H](O)[C@H]4O)[C@@H]2CC[C@]1(O[C@@H]1O[C@H](CO)[C@@H](O)[C@H](O[C@@H]2O[C@H](CO)[C@@H](O)[C@H](O)[C@H]2O)[C@H]1O[C@@H]1O[C@H](CO)[C@@H](O)[C@H](O)[C@H]1O)C3 [Reb A, Rebaudioside A] |  |  | 0.3 | 0.5 | 0.25 |  |
| COc1ccc(CCC(=O)c2c(O)cc(O[C@@H]3O[C@H](CO)[C@@H](O)[C@H](O)[C@H]3O[C@@H]3O[C@@H](C)[C@H](O)[C@@H](O)[C@H]3O)cc2O)cc1O [NHDC] | 0.5 |  |  |  |  | 0.06 |
| CC(C)Oc1ccc(NC(=S)NCc2ccc[nH]2)cc1 [S819, 1-((1H-pyrrol-2-yl)methyl)-3-(4-isopropoxyphenyl)thiourea] |  | 0.25 |  |  | 0.4 | 0.4 |
